Values of other authors as cited in patent US20240249808A1, “Physiologically Based Toxicokinetic (PBTK) Modeling for Implant Toxicology” (Cyprus University of Technology, priority 2021, published 2024).

Conditions: parenteral (non-oral) exposure; prolonged or permanent patient exposure; adverse systemic effects except hypersensitivity; CDRH recommended

Q: Which “Tolerable Intake (TI) value” does the source give for `[Ni]` [nickel] here?
A: 0.5 µg/kg/day
